Laboratory results taken from patent publication US6872841B2 (The University of North Carolina at Chapel Hill, priority 2002, dated 2005).
Like-named read-outs stand apart in the source and are kept apart here.

Legend:
[1] = tested on: KB (nasopharyngeal carcinoma); assay: Cell growth inhibition (standard SRB assay), KB; assay type: cell-based, human; settings: 3 days of continuous treatment, read-out: Cell growth inhibition ED50
[2] = tested on: KB-7d (MRP-pleotrophic multidrug-resistant KB sub-clone); assay: Cell growth inhibition (standard SRB assay), KB-7d; assay type: cell-based, human; settings: 3 days of continuous treatment, read-out: Cell growth inhibition ED50
KB cells = assay: Clonogenic assay; assay type: cell-based, human; settings: 5 μM for 30 minutes, colonies after 12 days
Method: (§1) Biological Assay and Results. […] Freshly trypsinized KB cells were exposed to drug at 5, 0.5, or 0.05 μM for 30 minutes, respectively. Then, 250 or 500 cells were immediately plated and left undisturbed for 12 days. Colonies were fixed with formalin and stained with toluidine blue.

DNA topoisomerase II = assay: In vitro topoisomerase II inhibition, plasmid relaxation/cleavage assay; assay type: biochemical; settings: for Minimum concentration to detect linear DNA: DNA topoisomerase II inhibition; for Relative activity as topoisomerase II inhibitor versus standards: compared with GL-331 and etoposide
[3] = tested on: A549 (lung adenocarcinoma); assay: Cell growth inhibition (standard SRB assay), A549; assay type: cell-based, human; settings: 3 days of continuous treatment, read-out: Cell growth inhibition ED50
[4] = tested on: MCF-7 (breast adenocarcinoma); assay: Cell growth inhibition (standard SRB assay), MCF-7; assay type: cell-based, human; settings: 3 days of continuous treatment, read-out: Cell growth inhibition ED50
[5] = tested on: KB (nasopharyngeal carcinoma); assay: Cytotoxicity (cell killing after 30 minutes of treatment), KB; settings: kills 50% of the cells after 30 minutes of treatment
Method: as §1

[6] = tested on: KB-7d (MRP-pleotrophic multidrug-resistant KB sub-clone); assay: Cytotoxicity (cell killing after 30 minutes of treatment), KB-7d; settings: kills 50% of the cells after 30 minutes of treatment
Method: as §1

[7] = tested on: A549 (lung adenocarcinoma); assay: Cytotoxicity (cell killing after 30 minutes of treatment), A549; settings: kills 50% of the cells after 30 minutes of treatment
[8] = tested on: MCF-7 (breast adenocarcinoma); assay: Cytotoxicity (cell killing after 30 minutes of treatment), MCF-7; settings: kills 50% of the cells after 30 minutes of treatment

| Compound | EC50 [1] [µM] | EC50 [2] [µM] | % Inhibition (KB cells) [%] | Minimum concentration to detect linear DNA (DNA topoisomerase II) [µM] | Relative activity as topoisomerase II inhibitor versus standards (DNA topoisomerase II) | EC50 [3] [µM] | EC50 [4] [µM] | Cytotoxicity LD50 [5] [µM] | Cytotoxicity LD50 [6] [µM] | Cytotoxicity LD50 [7] [µM] | Cytotoxicity LD50 [8] [µM] | EC50 ([3]; Homo sapiens, 72 h) [µM] | EC50 ([4]; Homo sapiens, MCF7, 72 h) [µM] | EC50 ([1]; Homo sapiens, 72 h) [µM] | EC50 ([2]; Homo sapiens, KB7D, 72 h) [µM] |
| --- | --- | --- | --- | --- | --- | --- | --- | --- | --- | --- | --- | --- | --- | --- | --- |
| 4′-O-demethyl-4β-[4″-(methyl L-tryptophan-N-carbonyl)-anilino]-4-desoxypodophyllotoxin [Compound 13] | 0.75 | < 0.1 | 82 | 5 | at least as active as GL-331 and four-fold more active than etoposide |  |  |  |  |  |  |  |  |  |  |
| 4′-O-demethyl-4β-{4″-[4′″-(benzimidazol-2″″-yl)-amido]-anilino}-4-desoxypodophyllotoxin [Compound 14] | > 25 |  |  |  |  |  |  |  |  |  |  |  |  |  |  |
| COc1cc(C2c3cc4c(cc3C(NC(=O)[C@H](Cc3ccc(O)cc3)NC(=O)OCc3ccccc3)C3COC(=O)C23)OCO4)cc(OC)c1O (stereo partly drawn) [Compound 10, 4′-O-demethyl-4β-[(N—CBZ-L-tyrosine-carbonyl)-amino]-4-desoxy-podophyllotoxin] | 2.3 | 6.7 |  |  |  | > 20 |  |  |  |  |  |  |  |  |  |
| COC(=O)[C@H](Cc1ccc(O)cc1)NC(=O)c1ccc(NC2c3cc4c(cc3C(c3cc(OC)c(O)c(OC)c3)C3C(=O)OCC23)OCO4)cc1 (stereo partly drawn) [Compound 12, 4′-O-demethyl-4β-[4″-(methyl L-tyrosine-N-carbonyl)-anilino]-4-desoxy-podophyllotoxin] | 1.9 | 5 | 99.5 | 5 | at least as active as GL-331 and four-fold more active than etoposide | 2.4 | 4.5 | 1.7 | <20 | 12.5 | <3.1 |  |  |  |  |
| COc1cc([C@@H]2c3cc4c(cc3[C@@H](O[C@@H]3O[C@@H]5CO[C@@H](C)O[C@H]5[C@H](O)[C@H]3O)[C@H]3COC(=O)[C@H]23)OCO4)cc(OC)c1O [Etoposide] |  |  |  | 20 |  |  |  | 49.0 | >50 | >50 | 21 | 5.2 | > 20 | 0.75 | > 10 |
| COc1cc([C@@H]2c3cc4c(cc3[C@@H](Nc3ccc([N+](=O)[O-])cc3)[C@H]3COC(=O)[C@H]23)OCO4)cc(OC)c1O [GL-331, reference compound] | 0.3 | 1.9 | 46 | 5 |  | 0.7 | 12 | 9.9 | <50 | 6.6 | 5.3 |  |  |  |  |
